# Laboratory results: ChEMBL document CHEMBL1157489, “Identification of novel non-peptide CXCR4 antagonists by ligand-based design approach” (Bioorg Med Chem Lett, 2008)
# Target: T1, C-X-C chemokine receptor type 4 (Homo sapiens, UniProt P61073)
# Experiment: Displacement of [125I]SDF1 from human CXCR4 expressed in CHO cells at 10 uM
# Assay type: cell-based
# Conditions: not given
# T1 sequence (P61073 whole entry): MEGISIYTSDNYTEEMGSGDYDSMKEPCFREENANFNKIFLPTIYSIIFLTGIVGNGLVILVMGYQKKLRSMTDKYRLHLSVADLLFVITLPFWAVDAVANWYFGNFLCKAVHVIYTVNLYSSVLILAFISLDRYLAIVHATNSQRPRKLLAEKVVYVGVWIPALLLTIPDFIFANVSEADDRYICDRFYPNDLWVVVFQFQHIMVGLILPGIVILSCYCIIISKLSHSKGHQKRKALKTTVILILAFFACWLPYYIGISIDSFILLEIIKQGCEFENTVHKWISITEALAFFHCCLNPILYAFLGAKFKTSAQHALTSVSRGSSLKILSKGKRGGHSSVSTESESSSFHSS
row,Activity [%],Compound
1,62,N=C(N)NCCCn1c(C(=O)Nc2cccc3ccccc23)cc2cc(NC(=O)Cc3ccc(O)cc3)ccc21
2,86,N=C(N)NCCCn1c(C(=O)NCCc2c[nH]c3ccccc23)cc2cc(NC(=O)C3CCN(C(=N)N)CC3)ccc21
3,70,N=C(N)NCCCn1c(C(=O)NCCc2c[nH]c3ccccc23)cc2cc(NC(=O)CCNC(=N)N)ccc21
4,63,N=C(N)NCCCn1c(C(=O)NCCc2ccc3ccccc3c2)cc2cc(NC(=O)CNC(=N)N)ccc21
5,55,N=C(N)NCCCn1c(C(=O)Nc2cccc3ccccc23)cc2cc(NC(=O)CCc3ccc(O)cc3)ccc21
6,23,N=C(N)NCCCn1c(C(=O)NCCc2ccc(O)cc2)cc2cc(NC(=O)CNC(=N)N)ccc21
7,53,N=C(N)NCCc1cc2cc(NC(=O)CCc3ccc(O)cc3)ccc2n1CCc1ccc2ccccc2c1
8,61,N=C(N)NCCCn1c(C(=O)NCCc2cccc3ccccc23)cc2cc(NC(=O)CNC(=N)N)ccc21
9,72,N=C(N)NCCCn1c(C(=O)NCCc2c[nH]c3ccccc23)cc2cc(NC(=O)C(Cc3ccccc3)NC(=N)N)ccc21 (racemic)
10,88,N=C(N)NCCCn1c(C(=O)NCCc2c[nH]c3ccccc23)cc2cc(NC(=O)CNC(=N)N)ccc21
11,77,CC(C)CC(NC(=N)N)C(=O)Nc1ccc2c(c1)cc(C(=O)NCCc1c[nH]c3ccccc13)n2CCCNC(=N)N (racemic)

# Target: T1, C-X-C chemokine receptor type 4
# Experiment: Displacement of [125I]SDF1 from human CXCR4 expressed in CHO cells
# Assay type: cell-based
# Conditions: not given
row,IC50 [µM],Compound
1,1.7,N=C(N)NCCCn1c(C(=O)NCCc2c[nH]c3ccccc23)cc2cc(NC(=O)[C@H](Cc3ccccc3)NC(=N)N)ccc21
2,3,N=C(N)NCCCn1c(C(=O)NCCc2c[nH]c3ccccc23)cc2cc(NC(=O)C3CCN(C(=N)N)CC3)ccc21
3,3,NC(N)=NCCCn1c(C(=O)NCCc2c[nH]c3ccccc23)cc2cc(NC(=O)CN=C(N)N)ccc21
4,1.2,CC(C)C[C@H](NC(=N)N)C(=O)Nc1ccc2c(c1)cc(C(=O)NCCc1c[nH]c3ccccc13)n2CCCNC(=N)N
5,2.7,NC(N)=NCCc1cc2cc(NC(=O)CCc3ccc(O)cc3)ccc2n1CCc1ccc2ccccc2c1
6,2.2,CC(C)C[C@@H](NC(=N)N)C(=O)Nc1ccc2c(c1)cc(C(=O)NCCc1c[nH]c3ccccc13)n2CCCNC(=N)N
7,3.7,N=C(N)NCCCn1c(C(=O)NCCc2c[nH]c3ccccc23)cc2cc(NC(=O)[C@@H](Cc3ccccc3)NC(=N)N)ccc21
8,4.8,NC(N)=NCCCn1c(C(=O)Nc2cccc3ccccc23)cc2cc(NC(=O)Cc3ccc(O)cc3)ccc21

# System: Human immunodeficiency virus 1
# Experiment: Antiviral activity against HIV1 3B assessed as inhibition of virus-induced cytopathogenicity
# Assay type: functional, organism-based
# Conditions: Human immunodeficiency virus 1, 3B
row,EC50 [µM],Compound
1,5.4,CC(C)C[C@H](NC(=N)N)C(=O)Nc1ccc2c(c1)cc(C(=O)NCCc1c[nH]c3ccccc13)n2CCCNC(=N)N
